Tests used:
[1] = Analyte selectivity (reactive species); conditions: CoxFluor 10 μM, analytes up to 500 μM (50 equiv), 4 h
Method: Analyte Selectivity. Response of CoxFluor (10 μM) to a variety of reactive oxygen, nitrogen, carbonyl, metals, and sulfur species (1, 3, 5, or 50 equiv) were monitored using the plate reader assay. Total volume of the reaction mixture was maintained at 190 μL in 100 mM Tris-HCl buffer (pH 8.0) with a final DMSO concentration of 1.26% (v/v). Assays for CoxFluor or resorufin were initiated by the addition of the analytes and the reactions were incubated at room temperature for up to 4 h. Measurements were recorded at a range of time points, and the relative turn-on was determined relative to a buffer control containing 10 μM CoxFluor or resorufin. Superoxide anion was added as a solution of potassium superoxide in DMSO. Nitroxyl was generated in situ from a solution of Angeli's salt in degassed 10 mM potassium hydroxide solution. Angeli's salt was prepared according to previously reported literature (Methods Enzymol. 1999, 301, 279). NO was generated in situ from a solution of MAHMA-NONOate in degassed 10 mM potassium hydroxide. Peroxynitrite was prepared according to previously reported literature (Anal. Biochem. 2006, 354, 165). All metals were prepared from their chloride salt. Formaldehyde solutions were prepared by depolymerizing saturated aqueous solutions at 100° C. before use. […]

HEK 293T cells = assay: Cell viability (trypan blue exclusion and MTT) in HEK 293T cells; assay type: cell-based; conditions: 6 h incubation
Method: (§1) Trypan Blue Exclusion Cytotoxicity Assay. 6-well plates were seeded with 300,000 cells per well (2 mL of 150,000 cells/mL) and incubated at 37° C. with 5% CO2 for 48 to 72 h (˜60-80% confluent). Media was removed and replaced with either 5, 10, or 25 μM CoxFluor in fresh serum-free DMEM media (1.25% DMSO v/v final concentration). […] The trypsin was quenched with the addition of 1.8 mL DMEM media containing 10% FBS and the cells were mixed thoroughly before diluting 1:1 with trypan blue (0.4% in PBS w/v). Percent viability was measured using a Countess® II FL Automated Cell Counter (Thermo Fisher Scientific), where the parameters were optimized to identify live and dead cells. Viability was calculated by the relative to the vehicle control.
(§2) MTT Cytotoxicity Assay. […] The media was removed at various time points (3 or 6 h) and replaced with 200 μL 20:1 mixture of FBS-free DMEM and (3-(4,5-dimethylthiazol-2-yl)-2,5-diphenyl-tetrazolium bromide (MTT, 5 mg/mL stock in PBS). The cells were incubated for 4 h under the same conditions and then the medium was removed and replaced with DMSO (200 μL/well). The absorbance of each well was recorded after a 1:5 dilution in DMSO at 555 nm on a microplate reader. Viability was calculated by the absorbance relative to the vehicle control.

[2] = test system: RAW 264.7 macrophage cells; assay: Cell viability (trypan blue exclusion and MTT) in RAW 264.7 macrophage cells; assay type: cell-based, mouse; conditions: 6 h incubation
Method: as §1, §2

[3] = test system: COX-2 activity in HEK 293T cells over-expressing human COX-2; assay: Confocal live-cell imaging of human COX-2 transfected HEK 293T cells; assay type: cell-based; conditions: CoxFluor 10 μM
Method: Prior to plating onto 4-well chambered cover glasses, the surface exposed substrate was coated with R&D Systems™ Cultrex Poly-L-Lysine (Fisher Scientific) according to the manufacturers protocol (allowed to dry>3 h). […] Transfections was performed using Lipofectamine 3000 (Thermo Fisher Scientific) according to the manufacturer's protocol. […] Media was removed from each well and replaced with 500 μL Opti-MEM™ Reduced Serum Media followed by the addition of 20 μL transfection master mix.
Transfections were performed using the Lipofectamine 3000 reagent according to the aforementioned protocol. Control wells were treated the same as the transfected wells without the addition of the transfection master mix. […] Each well was imaged using a Zeiss LSM 700 confocal microscope (n=3 technical replicates; n=4 biological replicates). For GSH knockdown experiments, the initial media change was performed with 1 mM NEM (0.1% DMSO final concentration) in serum-free DMEM media and the cells were allowed to incubate for 30 minutes before proceeding to the staining with CoxFluor. […] All images were processed using identical parameters and false colored (LUT: jet.lut) in ImageJ.

[4] = test system: COX-2 activity in RAW 264.7 macrophage lysates; assay: RAW 264.7 macrophage lysate COX-2 activity assay; assay type: cell-based, mouse; conditions: NEM 1 mM, CoxFluor readout
COX-2 = target: T1, COX-2 (Homo sapiens, UniProt P35354); assay: COX-2 fluorescence assay with CoxFluor (fluorimeter / plate reader); assay type: biochemical; set-up: made in house
T1 sequence (P35354 18-604): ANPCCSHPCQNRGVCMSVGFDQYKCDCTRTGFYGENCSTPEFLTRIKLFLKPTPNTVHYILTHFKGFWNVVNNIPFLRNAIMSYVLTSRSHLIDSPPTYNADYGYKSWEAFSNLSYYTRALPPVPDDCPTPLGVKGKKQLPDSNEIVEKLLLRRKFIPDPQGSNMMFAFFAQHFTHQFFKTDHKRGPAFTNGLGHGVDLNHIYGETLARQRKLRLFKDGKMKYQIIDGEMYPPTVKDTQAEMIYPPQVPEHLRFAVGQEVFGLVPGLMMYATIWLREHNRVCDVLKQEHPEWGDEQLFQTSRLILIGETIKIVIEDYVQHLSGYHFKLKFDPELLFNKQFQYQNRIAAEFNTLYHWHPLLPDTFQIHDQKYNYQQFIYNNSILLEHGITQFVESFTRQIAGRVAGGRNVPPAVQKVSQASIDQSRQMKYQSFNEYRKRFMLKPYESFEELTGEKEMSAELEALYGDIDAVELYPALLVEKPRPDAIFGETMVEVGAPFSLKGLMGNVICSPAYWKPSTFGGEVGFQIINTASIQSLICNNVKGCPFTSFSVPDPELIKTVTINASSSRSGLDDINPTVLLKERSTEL
Method: Fluorimeter Fluorescence Assay. The fluorescence assays were performed in microquartz cuvettes or submicroquartz cuvettes with a maximum volume of 600 μL. Reactions were monitored at room temperature using 540 nm excitation and emission was collected from 550-700 nm with a slit width of 1.25 mm. Total volumes of the reaction mixtures were maintained at 570 μL. […] Experiments in the presence of reduced GSH were conducted according to the same procedure, but GSH (30 μL, 19 mM in 100 mM Tris-HCl, pH 8.0) was added before the addition of CoxFluor for a final concentration of 1 mM. Assays performed in submicroquartz cuvettes were performed maintaining the same ratios, but with a final volume of 142.5 μL.
Plate Reader Fluorescence Assay. The fluorescence assays were performed at room temperature using 540 nm excitation and 590 nm emission. Total volume of the reaction mixture was maintained at 190 μL. […] Inhibition assays were performed according to the same procedure, but COX-2 was preincubated with hemin and inhibitor for 0.5 h at 0° C. before initiation with CoxFluor. Relative fluorescence enhancement is calculated by comparing to a buffer control with 10 μM CoxFluor.

## CCCCC/C=C\C/C=C\C/C=C\C/C=C\CCCC(=O)N1c2ccc(O)cc2Oc2cc(O)ccc21 [CoxFluor]
[1]
  activation by reactive oxygen/nitrogen species and other oxidants and reductants: no undesirable activation
HEK 293T cells
  cell viability: suitable viability
[2]
  cell viability: suitable viability
[3]; 3 h, N-ethylmaleimide glutathione depletion
  fluorescence increase for transfected cells compared to the control: 1.2 fold
[3]; 4.5 h
  fluorescence enhancement for the control relative to indomethacin-treated transfected cells: 1.2 fold
[4]; 19 hr LPS activation
  maximum increase in COX-2 activity in lysates: 17.6 fold
[4]; within the first 4 hr of LPS activation
  increase in COX-2 activity in lysates: 2.4 fold
COX-2
  measured rate for turnover relative to natural substrate cyclooxygenase activity: ≤ 100 fold
COX-2; CoxFluor 10 μM, COX-2 250 nM, hemin 1 μM, 4 h, room temperature, 100 mM Tris HCl pH 8.0
  fluorescent turn-on response: 41 fold
COX-2; glutathione 1 mM, COX-2 250 nM
  COX-2-specific fluorescence enhancement in the presence of glutathione: maintained significant COX-2-specific fluorescence enhancements

Source: patent US12053533B2, “Fluorescent probe for cyclooxygenase-2” (The Board of Trustees of the University of Illinois, priority 2020, dated 2024)
